# According to patent US9624241B2 (Incyte Corporation, priority 2013, dated 2017):
# Tests used:
# Type in all cases: binding
# BRD4-BD1 [1] = biological target: T1, BRD4-BD1 (Homo sapiens (Human), UniProt O60885); test: BRD4 AlphaScreen Assay (Example A1), BRD4-BD1; settings: Assay A1, 3.8 nM BRD4-BD1, 50 nM H4Ac4 peptide; read-out: BRD4 BD-1 enzyme IC50
# Procedure: (§1) BRD4-BD1 and BRD4-BD2 assays were conducted in white 384-well polystyrene plate in a final volume of 20 μL for BD1 and 40 μL for BD2. Inhibitors were first serially diluted in DMSO and added to the plate wells before the addition of other reaction components. […] After plate sealing, the plate was incubated in the dark at room temperature for 75 min. before reading on a PHERAstar FS plate reader (BMG Labtech). IC50 determination was performed by fitting the curve of percent control activity versus the log of the inhibitor concentration using the GraphPad Prism 5.0 software.
# BRD4-BD2 [2] = biological target: T2, BRD4-BD2 (Homo sapiens (Human), UniProt O60885); test: BRD4 AlphaScreen Assay (Example A1), BRD4-BD2; settings: Assay A1, 20 nM BRD4-BD2, 50 nM H4Ac4 peptide; read-out: BRD4 BD-2 enzyme IC50
# Procedure: as §1
# BRD4-BD1 [3] = biological target: T1, BRD4-BD1; test: BRD4 AlphaScreen Assay (Example A2), BRD4-BD1
# Method in brief: (§2)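 Displacement of 50 nM biotinylated tetra-acetylated histone H4 peptide from BRD4 BD1 or BD2 (<1 nM) in Tris-HCl pH 7.5 buffer with DTT. Inhibitors serially diluted in DMSO, added first, then incubated 75 min in the dark at room temperature before AlphaScreen read. IC50 fitted from percent control activity versus log concentration.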
# BRD4-BD2 [4] = biological target: T2, BRD4-BD2; test: BRD4 AlphaScreen Assay (Example A2), BRD4-BD2
# Method in brief: as §2
# [5] = Assay A2, AlphaScreen, BRD4-BD1, read-out: BRD4 BD-1 enzyme IC50
# [6] = Assay A2, AlphaScreen, BRD4-BD2, read-out: BRD4 BD-2 enzyme IC50
Compound,IC50 (BRD4-BD1 [3]; [5]) [nM],IC50 (BRD4-BD2 [4]; [6]) [nM],further results
Cc1noc(C)c1-c1ccc2nc(N3CCN(C(=O)OC(C)(C)C)CC3)n3c2c1OCC3c1ccccc1 (stereo not shown) [Example 60],,,IC50 (BRD4-BD1 [1]): < 100 nM; IC50 (BRD4-BD2 [2]): < 100 nM
"Cc1noc(C)c1-c1ccc2nc(NC(C)C)n3c2c1OCC3c1ccccc1 (stereo not shown) [Example 25, 7-(3,5-Dimethylisoxazol-4-yl)-N-isopropyl-4-phenyl-4,5-dihydroimidazo[1,5,4-de][1,4]benzoxazin-2-amine]",,,IC50 (BRD4-BD1 [1]): < 100 nM; IC50 (BRD4-BD2 [2]): < 100 nM
"Cc1noc(C)c1-c1ccc2[nH]c(=O)n3c2c1OCC3c1ccc(C#N)cc1 (stereo not shown) [Example 4, 4-[7-(3,5-Dimethylisoxazol-4-yl)-2-oxo-1,2,4,5-tetrahydroimidazo[1,5,4-de][1,4]benzoxazin-4-yl]benzonitrile]",,,IC50 (BRD4-BD1 [1]): < 100 nM; IC50 (BRD4-BD2 [2]): < 100 nM
"Cc1noc(C)c1-c1cc(-c2cccnc2O)c2[nH]c(=O)n3c2c1OC[C@@H]3c1ccccn1 [Example 261, (4S)-7-(3,5-dimethylisoxazol-4-yl)-9-(2-hydroxypyridin-3-yl)-4-pyridin-2-yl-4,5-dihydroimidazo[1,5,4-de][1,4]benzoxazin-2(1H)-one]",100 to 1000,< 100,
"Cc1noc(C)c1-c1cc(C)c2[nH]c(=O)n3c2c1OCC3c1ccccn1 (stereo not shown) [Example 268, 7-(3,5-dimethylisoxazol-4-yl)-9-methyl-4-pyridin-2-yl-4,5-dihydroimidazo[1,5,4-de][1,4]benzoxazin-2(1H)-one]",1000 to 10000,100 to 1000,
"Cc1noc(C)c1-c1cc(C#N)c2[nH]c(=O)n3c2c1OCC3c1ccccc1 (stereo not shown) [Example 42, 7-(3,5-Dimethylisoxazol-4-yl)-2-oxo-4-phenyl-1,2,4,5-tetrahydroimidazo[1,5,4-de][1,4]benzoxazine-9-carbonitrile]",< 100,< 100,
"CCC1(c2ccccn2)COc2c(-c3c(C)noc3C)ccc3[nH]c(=O)n1c23 (stereo not shown) [Example 70, 7-(3,5-Dimethylisoxazol-4-yl)-4-ethyl-4-pyridin-2-yl-4,5-dihydroimidazo[1,5,4-de][1,4]benzoxazin-2(1H)-one 2,2,2-trifluoroacetate]",,,IC50 (BRD4-BD1 [3]; read-out: BRD4 BD-1 enzyme IC50): < 100 nM; IC50 (BRD4-BD2 [4]; read-out: BRD4 BD-2 enzyme IC50): < 100 nM
"Cc1noc(C)c1-c1ccc2[nH]c(=O)n3c2c1OCC3C1CCCCN1 (single isomer, unassigned) [Example 63A, 7-(3,5-Dimethylisoxazol-4-yl)-4-piperidin-2-yl-4,5-dihydroimidazo[1,5,4-de][1,4]benzoxazin-2(1H)-one 2,2,2-trifluoroacetate]",,,IC50 (BRD4-BD1 [3]): 100 to 1000 nM; IC50 (BRD4-BD2 [4]): 100 to 1000 nM
"Cc1noc(C)c1-c1ccc2[nH]c(=O)n3c2c1OC(C(=O)NCCO)C3c1ccccc1 (single isomer, unassigned) [Example 48B, 7-(3,5-Dimethylisoxazol-4-yl)-N-(2-hydroxyethyl)-2-oxo-4-phenyl-1,2,4,5-tetrahydroimidazo[1,5,4-de][1,4]benzoxazine-5-carboxamide]",100 to 1000,< 100,
"Cc1noc(C)c1-c1ccc2[nH]c(=O)n3c2c1OC(C)(C)C3c1ccccn1 (single isomer, unassigned) [Example 61A, 7-(3,5-Dimethylisoxazol-4-yl)-5,5-dimethyl-4-pyridin-2-yl-4,5-dihydroimidazo[1,5,4-de][1,4]benzoxazin-2(1H)-one]",< 100,< 100,
"Cc1noc(C)c1-c1cc(F)c2[nH]c(=O)n3c2c1OCC3c1ccccn1 (stereo not shown) [Example 265A, 7-(3,5-dimethylisoxazol-4-yl)-9-fluoro-4-pyridin-2-yl-4,5-dihydroimidazo[1,5,4-de][1,4]benzoxazin-2(1H)-one]",1000 to 10000,1000 to 10000,
"Cc1noc(C)c1-c1ccc2nc(N3CC(O)C3)n3c2c1OCC3c1cccnc1 (single isomer, unassigned) [Example 160B, 1-[7-(3,5-Dimethylisoxazol-4-yl)-4-pyridin-3-yl-4,5-dihydroimidazo[1,5,4-de][1,4]benzoxazin-2-yl]azetidin-3-ol]",1000 to 10000,1000 to 10000,
"Cc1noc(C)c1-c1ccc2nc(N3CC(NC(=O)C(C)C)C3)n3c2c1OC[C@@H]3c1ccccn1 [Example 233, N-{1-[(4S)-7-(3,5-dimethylisoxazol-4-yl)-4-pyridin-2-yl-4,5-dihydroimidazo[1,5,4-de][1,4]benzoxazin-2-yl]azetidin-3-yl}-2-methylpropanamide]",< 100,< 100,
"Cc1noc(C)c1-c1cc(Cl)c2[nH]c(=O)n3c2c1OCC3c1ccccn1 (single isomer, unassigned) [Example 266A, 9-chloro-7-(3,5-dimethylisoxazol-4-yl)-4-pyridin-2-yl-4,5-dihydroimidazo[1,5,4-de][1,4]benzoxazin-2(1H)-one]",100 to 1000,< 100,
"CC(=O)N1CC=C(c2nc3ccc(-c4c(C)noc4C)c4c3n2[C@@H](c2ccccn2)CO4)CC1 [Example 110, (4S)-2-(1-acetyl-1,2,3,6-tetrahydropyridin-4-yl)-7-(3,5-dimethylisoxazol-4-yl)-4-pyridin-2-yl-4,5-dihydroimidazo[1,5,4-de][1,4]benzoxazine]",< 100,< 100,
"Cc1noc(C)c1-c1ccc2[nH]c(=O)n3c2c1OCC3C1CCCCN1S(C)(=O)=O (stereo not shown) [Example 79, 7-(3,5-dimethylisoxazol-4-yl)-4-[1-(methylsulfonyl)piperidin-2-yl]-4,5-dihydroimidazo[1,5,4-de][1,4]benzoxazin-2(1H)-one]",,,IC50 (BRD4-BD1 [3]): 1000 to 10000 nM; IC50 (BRD4-BD2 [4]): 1000 to 10000 nM
"Cc1noc(C)c1-c1c(Cl)c(Cl)c2[nH]c(=O)n3c2c1OC[C@@H]3c1ccccn1 [Example 252, (4S)-8,9-dichloro-7-(3,5-dimethylisoxazol-4-yl)-4-pyridin-2-yl-4,5-dihydroimidazo[1,5,4-de][1,4]benzoxazin-2(1H)-one bistrifluoroacetate]",100 to 1000,100 to 1000,
"CC(=O)N1CCC=C(c2nc3ccc(-c4c(C)noc4C)c4c3n2[C@@H](c2ccccn2)CO4)C1 [Example 116, (4S)-2-(1-acetyl-1,2,5,6-tetrahydropyridin-3-yl)-7-(3,5-dimethylisoxazol-4-yl)-4-pyridin-2-yl-4,5-dihydroimidazo[1,5,4-de][1,4]benzoxazine]",< 100,< 100,
"Cc1noc(C)c1-c1cc(CNc2ccccc2)c2[nH]c(=O)n3c2c1OCC3c1ccccn1 (stereo not shown) [Example 262, 9-(anilinomethyl)-7-(3,5-dimethylisoxazol-4-yl)-4-pyridin-2-yl-4,5-dihydroimidazo[1,5,4-de][1,4]benzoxazin-2(1H)-one]",1000 to 10000,< 100,
"CCNc1nc2c(F)cc(-c3c(C)noc3C)c3c2n1C(c1cccnc1)CO3 (stereo not shown) [Example 158, 7-(3,5-Dimethylisoxazol-4-yl)-N-ethyl-9-fluoro-4-pyridin-3-yl-4,5-dihydroimidazo[1,5,4-de][1,4]benzoxazin-2-amine]",< 100,< 100,
"Cc1noc(C)c1-c1cc(C2=CCN(C(=O)OC(C)(C)C)CC2)c2[nH]c(=O)n3c2c1OC[C@@H]3c1ccccn1 [Example 83, tert-butyl 4-[(4S)-7-(3,5-dimethylisoxazol-4-yl)-2-oxo-4-pyridin-2-yl-1,2,4,5-tetrahydroimidazo[1,5,4-de][1,4]benzoxazin-9-yl]-3,6-dihydropyridine-1(2H)-carboxylate 2,2,2-trifluoroacetate]",< 100,< 100,
"Cc1noc(C)c1-c1ccc2[nH]c(=O)n3c2c1OC(C)C3c1ccccn1 (stereo not shown) [Example 75, 7-(3,5-dimethylisoxazol-4-yl)-5-methyl-4-pyridin-2-yl-4,5-dihydroimidazo[1,5,4-de][1,4]benzoxazin-2(1H)-one]",< 100,< 100,
"Cc1noc(C)c1-c1ccc2nc(C3=CCCN(C(=O)OC(C)(C)C)C3)n3c2c1OC[C@@H]3c1ccccn1 [Example 99, tert-Butyl 5-[(4S)-7-(3,5-dimethylisoxazol-4-yl)-4-pyridin-2-yl-4,5-dihydroimidazo[1,5,4-de][1,4]benzoxazin-2-yl]-3,6-dihydropyridine-1(2H)-carboxylate]",< 100,< 100,
"Cc1noc(C)c1-c1ccc2nc(N3CC(O)C3)n3c2c1OCC3c1cccnc1 (single isomer, unassigned) [Example 160C, 1-[7-(3,5-Dimethylisoxazol-4-yl)-4-pyridin-3-yl-4,5-dihydroimidazo[1,5,4-de][1,4]benzoxazin-2-yl]azetidin-3-ol]",1000 to 10000,1000 to 10000,
"Cc1noc(C)c1-c1cc(-c2cnn(C)c2)c2[nH]c(=O)n3c2c1OC[C@@H]3c1ccccn1 [Example 81, (4S)-7-(3,5-dimethylisoxazol-4-yl)-9-(1-methyl-1H-pyrazol-4-yl)-4-pyridin-2-yl-4,5-dihydroimidazo[1,5,4-de][1,4]benzoxazin-2(1H)-one 2,2,2-trifluoroacetate]",100 to 1000,< 100,
"Cc1noc(C)c1-c1ccc2nc(C3CCNC3)n3c2c1OC[C@@H]3c1ccccn1 (single isomer, unassigned; diastereomer 2) [Example 106B]",< 100,< 100,
